This passage reports IC50 and viability results from ChEMBL document CHEMBL4732124 (Eur J Med Chem, 2021).

One may read the IC50 as the midpoint of a concentration-inhibition curve.

For experiment [1], the system named is HepG2. The experiment in a line: Antiproliferative activity against human HepG2 cells assessed as reduction in cell viability after 48 hrs by MTT assay. The note with it: HepG2, 48 h. It is filed as functional, cell-based. For orientation: Tetrazolium assays rely on reduction of a dye to a coloured formazan, in cell work by metabolically active cells.
For experiment [2], the system named is Hep 3B2. The experiment in a line: Antiproliferative activity against human Hep3B cells assessed as cell viability at 10 uM after 48 hrs by MTT assay relative to control. It is filed as functional. The settings on record: read-out: Activity.
Experiment [3] relates to Huh-7. The experiment in a line: Antiproliferative activity against human Huh-7 cells assessed as cell viability at 10 uM after 48 hrs by MTT assay relative to control. It is filed as functional. The settings on record: read-out: Activity.
Experiment [4] has as its system HepG2. The experiment in a line: Antiproliferative activity against human HepG2 cells assessed as cell viability at 10 uM after 48 hrs by MTT assay relative to control. It is filed as functional. The note with it: read-out: Activity.
In experiment [5] the test system is WI-38. The experiment in a line: Cytotoxicity against human WI-38 cells assessed as cell viability after 48 hrs by MTT assay. It is filed as cell-based. The settings on record: WI-38, 48 h.
In experiment [6] the test system is Huh-7. Briefly: Antiproliferative activity against human Huh-7 cells assessed as reduction in cell viability after 48 hrs by MTT assay. It is filed as functional, cell-based. The note with it: Huh-7, 48 h.
Experiment [7] has as its system Hep 3B2. The experiment in a line: Antiproliferative activity against human Hep3B cells assessed as reduction in cell viability after 48 hrs by MTT assay. It is filed as functional, cell-based.

For `CNC(=O)c1cc(-n2ccc3cc(NC(=O)c4cccc(C(F)(F)F)c4)ccc32)ccn1`, the IC50 in experiment [1] was 2.67 µM; in experiment [5], 6.5 µM. For the same molecule, the viability at 10 µM in experiment [2] stood at 72%; in experiment [3], 77%; in experiment [4] it was 34%.

As to `CNC(=O)c1cc(-n2ccc3cc(NC(=S)Nc4cccc(C(F)(F)F)c4)ccc32)ccn1`, the viability at 10 µM in experiment [2] was found to be 99%; in experiment [3], 109%; in experiment [4] it was 81%.

`CNC(=O)c1cc(-n2ccc3cc(NS(=O)(=O)c4cc(C(F)(F)F)cc(C(F)(F)F)c4)ccc32)ccn1`: the viability at 10 µM in experiment [2] was 92%; in experiment [3], 98%; in experiment [4], 96%.

As to `CNC(=O)c1cc(-n2ccc3cc(NS(=O)(=O)c4ccccc4)ccc32)ccn1`, the viability at 10 µM amounted to 93% in experiment [2], 105% in experiment [3] and 98% in experiment [4].

Turning to `CNC(=O)c1cc(-n2ccc3cc(NC(=S)Nc4ccccc4)ccc32)ccn1`, the viability at 10 µM in experiment [2] was determined as 64%; in experiment [3], 121%; in experiment [4], 100%.

On to `CNC(=O)c1cc(-n2ccc3cc(NC(=O)c4ccc(Cl)c(Cl)c4)ccc32)ccn1`, for which the values for the viability at 10 µM in experiment [2], in experiment [3] and in experiment [4] were 79%, 61% and 80%, respectively.

For `CNC(=O)c1cc(-n2ccc3cc(NS(=O)(=O)c4ccc(Cl)c(Cl)c4)ccc32)ccn1`, the viability at 10 µM amounted to 92% in experiment [2], 94% in experiment [3] and 97% in experiment [4].

As to `CNC(=O)c1cc(-n2ccc3cc(NC(=S)Nc4ccc(Cl)c(C(F)(F)F)c4)ccc32)ccn1`, the IC50 was 21.5 µM in experiment [6], 13.9 µM in experiment [7] and 28.8 µM in experiment [5]. Further, the viability at 10 µM turned out to be 40% in experiment [2], 76% in experiment [3] and 60% in experiment [4].

On to `CNC(=O)c1cc(-n2ccc3cc(NC(=O)c4ccc(F)c(C(F)(F)F)c4)ccc32)ccn1`, for which the figures for the viability at 10 µM in experiment [2], in experiment [3] and in experiment [4] were 59%, 40% and 67%, respectively.

With `CNC(=O)c1cc(-n2ccc3cc(NC(=O)c4ccc(N5CCOCC5)c(C(F)(F)F)c4)ccc32)ccn1`, the results for the IC50 in experiment [1] and in experiment [5] were 237 µM and 8.48 µM, respectively. Moreover, the viability at 10 µM in experiment [2] is 53%; in experiment [3], 46%; in experiment [4], 72%.

With `CNC(=O)c1cc(-n2ccc3cc(NC(=O)c4ccccc4)ccc32)ccn1`, the results for the viability at 10 µM in experiment [2], in experiment [3] and in experiment [4] were 29%, 105% and 99%, respectively.

`CNC(=O)c1cc(-n2ccc3cc(NC(=O)Nc4ccc(N5CCOCC5)c(C(F)(F)F)c4)ccc32)ccn1`: the IC50 in experiment [1] was 9.35 µM; in experiment [6], 5.6 µM; in experiment [5], more than 30 µM. The figures for the viability at 10 µM in experiment [2], in experiment [3] and in experiment [4] were 27%, 28% and 47%, respectively.

With `CNC(=O)c1cc(-n2ccc3cc(NC(=S)Nc4ccc(Cl)c(Cl)c4)ccc32)ccn1`, the figures for the viability at 10 µM in experiment [2], in experiment [3] and in experiment [4] were 86%, 89% and 79%, respectively.

As to `CNC(=O)c1cc(-n2ccc3cc(NC(=O)c4ccc(Cl)c(C(F)(F)F)c4)ccc32)ccn1`, the viability at 10 µM in experiment [2] stood at 54%; in experiment [3], 42%; in experiment [4] it was 32%.

Consider `CNC(=O)c1cc(-n2ccc3cc(NC(=S)Nc4cc(C(F)(F)F)cc(C(F)(F)F)c4)ccc32)ccn1`, for which the figures for the viability at 10 µM in experiment [2], in experiment [3] and in experiment [4] were 55%, 40% and 53%, respectively.

With `CNC(=O)c1cc(-n2ccc3cc(NS(=O)(=O)c4ccc(Cl)c(C(F)(F)F)c4)ccc32)ccn1`, the results for the viability at 10 µM in experiment [2], in experiment [3] and in experiment [4] were 92%, 101% and 97%, respectively.

As for `CNC(=O)c1cc(-n2ccc3cc(NC(=O)Nc4ccccc4)ccc32)ccn1`, the results for the viability at 10 µM in experiment [2], in experiment [3] and in experiment [4] were 66%, 74% and 82%, respectively.

For the molecule `CNC(=O)c1cc(-n2ccc3cc(NC(=O)Nc4ccc(Cl)c(Cl)c4)ccc32)ccn1`, the values for the IC50 in experiment [6], in experiment [7] and in experiment [5] were 7.96 µM, 7.94 µM and 23.1 µM, respectively. Also, the viability at 10 µM in experiment [2] amounted to 46%; in experiment [3], 43%; in experiment [4], 57%.

As to `CNC(=O)c1cc(-n2ccc3cc(NC(=O)Nc4ccc(F)c(C(F)(F)F)c4)ccc32)ccn1`, the figures for the viability at 10 µM in experiment [2], in experiment [3] and in experiment [4] were 49%, 65% and 67%, respectively.

On to `CNC(=O)c1cc(-n2ccc3cc(NC(=O)Nc4ccc(Cl)c(C(F)(F)F)c4)ccc32)ccn1`, for which the IC50 in experiment [6] came to 15.4 µM; in experiment [7], 12.3 µM; in experiment [5], 26.7 µM. In addition, the results for the viability at 10 µM in experiment [2], in experiment [3] and in experiment [4] were 53%, 40% and 55%, respectively.

Regarding `CNC(=O)c1cc(-n2ccc3cc(NC(=O)Nc4cccc(C(F)(F)F)c4)ccc32)ccn1`, the viability at 10 µM in experiment [2] was 58%; in experiment [3] it was 68%; in experiment [4], 76%.

Consider `CNC(=O)c1cc(-n2ccc3cc(NS(=O)(=O)c4cccc(C(F)(F)F)c4)ccc32)ccn1`, for which the figures for the viability at 10 µM in experiment [2], in experiment [3] and in experiment [4] were 84%, 94% and 88%, respectively.

Turning to `CNC(=O)c1cc(-n2ccc3cc(NC(=O)Nc4cc(C(F)(F)F)cc(C(F)(F)F)c4)ccc32)ccn1`, the IC50 was 5.01 µM in experiment [6], 29.8 µM in experiment [7] and more than 30 µM in experiment [5]. Further, the figures for the viability at 10 µM in experiment [2], in experiment [3] and in experiment [4] were 73%, 30% and 55%, respectively.

Regarding `CNC(=O)c1cc(-n2ccc3cc(NC(=O)c4cc(C(F)(F)F)cc(C(F)(F)F)c4)ccc32)ccn1`, the values for the viability at 10 µM in experiment [2], in experiment [3] and in experiment [4] were 111%, 77% and 90%, respectively.
